The source made the active and inactive calls. The rule behind the calls is not given here.
Key:
[1] = biological target: DNA topoisomerase 2-alpha (Homo sapiens) (UniProt P11388); assay: Inhibition of human recombinant topoisomerase 2-mediated relaxation of supercoiled plasmid pBR322 DNA at 8 uM
UACC-257 = assay: Antitumor activity against UACC257 cells; assay type: functional; conditions: Homo sapiens
OVCAR-3 = assay: Antitumor activity against OVCAR-3 cells; assay type: functional; conditions: Homo sapiens
BT-549 = assay: Antitumor activity against BT549 cells; assay type: functional; conditions: Homo sapiens
NCI/ADR-RES = assay: Antitumor activity against NCI/ADRRES cells; assay type: functional; conditions: Homo sapiens
EKVX = assay: Antitumor activity against EKVX cells; assay type: functional; conditions: Homo sapiens
HCT-116 = assay: Antitumor activity against HCT116 cells; assay type: functional; conditions: Homo sapiens
Malme-3M = assay: Antitumor activity against MALME-3M cells; assay type: functional; conditions: Homo sapiens
HCC 2998 = assay: Antitumor activity against HCC2998 cells; assay type: functional; conditions: Homo sapiens
A549 = assay: Antitumor activity against A549 cells; assay type: functional; conditions: Homo sapiens
SK-MEL-5 = assay: Antitumor activity against SK-MEL-5 cells; assay type: functional; conditions: Homo sapiens
IGROV-1 = assay: Antitumor activity against IGROV1 cells; assay type: functional; conditions: Homo sapiens
MDA-MB-435 = assay: Antitumor activity against MDA-MB-435 cells; assay type: functional; conditions: Homo sapiens
KM12 = assay: Antitumor activity against KM12 cells; assay type: functional; conditions: Homo sapiens
A498 = assay: Antitumor activity against A498 cells; assay type: functional; conditions: Homo sapiens
ACHN = assay: Antitumor activity against ACHN cells; assay type: functional; conditions: Homo sapiens
SNB-19 = assay: Antitumor activity against SNB19 cells; assay type: functional; conditions: Homo sapiens
T47D = assay: Antitumor activity against T47D cells; assay type: functional; conditions: Homo sapiens
U-251 = assay: Antitumor activity against U251 cells; assay type: functional; conditions: Homo sapiens
MCF7 = assay: Antitumor activity against MCF7 cells; assay type: functional; conditions: Homo sapiens
HOP-62 = assay: Antitumor activity against HOP62 cells; assay type: functional; conditions: Homo sapiens
NCI-H522 = assay: Antitumor activity against NCI-H522 cells; assay type: functional; conditions: Homo sapiens
MDA-MB-231 = assay: Antitumor activity against MDA-MB-231 cells; assay type: functional; conditions: Homo sapiens
[2] = biological target: DNA topoisomerase 2-alpha (Homo sapiens) (UniProt P11388); assay: Inhibition of human recombinant topoisomerase 2-mediated relaxation of supercoiled plasmid pBR322 DNA at 100 uM
OVCAR-4 = assay: Antitumor activity against OVCAR4 cells; assay type: functional; conditions: Homo sapiens
NCI-H23 = assay: Antitumor activity against NCI-H23 cells; assay type: functional; conditions: Homo sapiens
SF-268 = assay: Antitumor activity against SF268 cells; assay type: functional; conditions: Homo sapiens
HCT-15 = assay: Antitumor activity against HCT15 cells; assay type: functional; conditions: Homo sapiens
SF-539 = assay: Antitumor activity against SF539 cells; assay type: functional; conditions: Homo sapiens
HT-29 = assay: Antitumor activity against HT29 cells; assay type: functional; conditions: Homo sapiens
DU-145 = assay: Antitumor activity against DU145 cells; assay type: functional; conditions: Homo sapiens
K562 = assay: Antitumor activity against K562 cells; assay type: functional; conditions: Homo sapiens
LOX IMVI = assay: Antitumor activity against LOX-IMVI cells; assay type: functional; conditions: Homo sapiens
SK-MEL-2 = assay: Antitumor activity against SK-MEL-2 cells; assay type: functional; conditions: Homo sapiens
COLO 205 = assay: Antitumor activity against COLO205 cells; assay type: functional; conditions: Homo sapiens
M14 = assay: Antitumor activity against M14 cells; assay type: functional; conditions: Homo sapiens
NCI-H226 = assay: Antitumor activity against NCI-H226 cells; assay type: functional; conditions: Homo sapiens
SK-OV-3 = assay: Antitumor activity against SKOV3 cells; assay type: functional; conditions: Homo sapiens
[3] = Antitumor activity against HL60(TB) cells; assay type: functional, HL-60(TB); conditions: Homo sapiens, HL-60
SW-620 = assay: Antitumor activity against SW620 cells; assay type: functional; conditions: Homo sapiens
TK-10 = assay: Antitumor activity against TK10 cells; assay type: functional; conditions: Homo sapiens
CCRF-CEM = assay: Antitumor activity against CCRF-CEM cells; assay type: functional; conditions: Homo sapiens
SK-MEL-28 = assay: Antitumor activity against SK-MEL-28 cells; assay type: functional; conditions: Homo sapiens
786-0 = assay: Antitumor activity against 7860 cells; assay type: functional; conditions: Homo sapiens
NCI-H322M = assay: Antitumor activity against NCI-H322M cells; assay type: functional; conditions: Homo sapiens
UO-31 = assay: Antitumor activity against UO31 cells; assay type: functional; conditions: Homo sapiens
RXF 393 = assay: Antitumor activity against RXF393 cells; assay type: functional; conditions: Homo sapiens
HOP-92 = assay: Antitumor activity against HOP92 cells; assay type: functional; conditions: Homo sapiens
NCI-H460 = assay: Antitumor activity against NCI-H460 cells; assay type: functional; conditions: Homo sapiens
SNB-75 = assay: Antitumor activity against SNB75 cells; assay type: functional; conditions: Homo sapiens
MOLT-4 = assay: Antitumor activity against MOLT4 cells; assay type: functional; conditions: Homo sapiens
OVCAR-5 = assay: Antitumor activity against OVCAR5 cells; assay type: functional; conditions: Homo sapiens
UACC-62 = assay: Antitumor activity against UACC62 cells; assay type: functional; conditions: Homo sapiens
Hs-578T = assay: Antitumor activity against HS578T cells; assay type: functional; conditions: Homo sapiens
SF-295 = assay: Antitumor activity against SF295 cells; assay type: functional; conditions: Homo sapiens
RPMI-8226 = assay: Antitumor activity against RPMI8226 cells; assay type: functional; conditions: Homo sapiens
SR = assay: Antitumor activity against SR cells; assay type: functional; conditions: Homo sapiens
CAKI-1 = assay: Antitumor activity against CAKI1 cells; assay type: functional; conditions: Homo sapiens
PC-3 = assay: Antitumor activity against PC3 cells; assay type: functional; conditions: Homo sapiens
OVCAR-8 = assay: Antitumor activity against OVCAR8 cells; assay type: functional; conditions: Homo sapiens
[4] = biological target: DNA topoisomerase 2-alpha (Homo sapiens) (UniProt P11388); assay: Inhibition of human recombinant topoisomerase 2-mediated relaxation of supercoiled plasmid pBR322 DNA at 50 uM
SN12C = assay: Antitumor activity against SN12C cells; assay type: functional; conditions: Homo sapiens
[5] = read-out: LC50 (the source's name)

DNA topoisomerase 2-alpha (Homo sapiens), sequence (P11388 whole entry): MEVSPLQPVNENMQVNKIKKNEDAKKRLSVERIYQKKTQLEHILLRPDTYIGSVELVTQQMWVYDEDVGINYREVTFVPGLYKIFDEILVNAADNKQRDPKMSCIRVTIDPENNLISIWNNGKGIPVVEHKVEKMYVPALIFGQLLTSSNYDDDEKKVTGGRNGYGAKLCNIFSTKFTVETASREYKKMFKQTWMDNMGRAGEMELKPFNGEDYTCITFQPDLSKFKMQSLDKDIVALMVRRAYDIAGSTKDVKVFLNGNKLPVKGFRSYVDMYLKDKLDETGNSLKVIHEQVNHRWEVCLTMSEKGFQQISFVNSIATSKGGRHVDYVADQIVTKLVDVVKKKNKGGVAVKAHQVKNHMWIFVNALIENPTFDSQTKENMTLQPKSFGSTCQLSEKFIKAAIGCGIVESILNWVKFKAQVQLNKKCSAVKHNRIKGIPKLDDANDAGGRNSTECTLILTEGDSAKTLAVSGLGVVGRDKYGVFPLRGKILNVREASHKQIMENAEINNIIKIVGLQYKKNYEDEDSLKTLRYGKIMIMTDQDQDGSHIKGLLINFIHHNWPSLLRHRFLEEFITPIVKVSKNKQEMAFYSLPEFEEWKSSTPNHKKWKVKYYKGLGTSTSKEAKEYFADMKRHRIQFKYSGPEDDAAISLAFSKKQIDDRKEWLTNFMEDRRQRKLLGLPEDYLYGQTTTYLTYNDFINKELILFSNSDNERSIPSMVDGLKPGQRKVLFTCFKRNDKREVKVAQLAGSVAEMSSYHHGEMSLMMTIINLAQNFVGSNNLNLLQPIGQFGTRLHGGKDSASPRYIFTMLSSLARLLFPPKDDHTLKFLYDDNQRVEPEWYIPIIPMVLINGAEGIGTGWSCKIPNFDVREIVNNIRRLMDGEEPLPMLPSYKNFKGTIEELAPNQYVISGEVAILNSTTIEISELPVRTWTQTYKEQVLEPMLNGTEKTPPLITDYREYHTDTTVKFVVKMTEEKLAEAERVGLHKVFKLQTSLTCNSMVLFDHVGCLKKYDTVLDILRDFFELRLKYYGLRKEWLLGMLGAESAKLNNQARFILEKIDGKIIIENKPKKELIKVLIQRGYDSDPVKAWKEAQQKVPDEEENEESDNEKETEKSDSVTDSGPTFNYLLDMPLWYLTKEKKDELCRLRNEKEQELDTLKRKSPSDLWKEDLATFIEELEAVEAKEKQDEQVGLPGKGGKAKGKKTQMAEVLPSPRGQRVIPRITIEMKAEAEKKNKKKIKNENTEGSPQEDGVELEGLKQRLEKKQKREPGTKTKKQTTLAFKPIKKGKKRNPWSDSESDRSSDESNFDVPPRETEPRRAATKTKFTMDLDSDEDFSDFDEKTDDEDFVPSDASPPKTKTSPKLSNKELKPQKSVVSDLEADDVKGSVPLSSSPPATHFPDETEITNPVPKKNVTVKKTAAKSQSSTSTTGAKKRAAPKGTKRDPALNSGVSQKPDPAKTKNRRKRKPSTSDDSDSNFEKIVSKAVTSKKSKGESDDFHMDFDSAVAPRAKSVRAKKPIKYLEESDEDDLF

SMILES: COc1cc(NS(C)(=O)=O)ccc1Nc1c2ccccc2nc2ccccc12
- Activity [1]: Active

SMILES: Cn1cc(-c2cc(-c3cn(C)c4ccc(Cl)cc34)[nH]n2)c2cc(Cl)ccc21
- GI50 (UACC-257): 4.27 µM
- GI50 (OVCAR-3): 4.41 µM
- GI50 (BT-549): 2.03 µM
- GI50 (NCI/ADR-RES): 2.25 µM
- GI50 (EKVX): 3.15 µM
- GI50 (HCT-116): 3.82 µM
- GI50 (Malme-3M): 9.64 µM
- GI50 (HCC 2998): 1.71 µM
- TGI (HCC 2998): 3.84 µM
- CC50 (HCC 2998; [5]): 8.63 µM
- GI50 (A549): 3.24 µM
- GI50 (SK-MEL-5): 1.79 µM
- GI50 (IGROV-1): 2.55 µM
- GI50 (MDA-MB-435): 2.99 µM
- GI50 (KM12): 3.45 µM
- GI50 (A498): 2.44 µM
- GI50 (ACHN): 3.23 µM
- GI50 (SNB-19): 4.09 µM
- GI50 (T47D): 4.06 µM
- GI50 (U-251): 3.37 µM
- GI50 (MCF7): 2.64 µM
- GI50 (HOP-62): 7.98 µM
- GI50 (NCI-H522): 1.75 µM
- GI50 (MDA-MB-231): 2.95 µM
- Activity [2]: Active
- GI50 (OVCAR-4): 5.82 µM
- GI50 (NCI-H23): 2.49 µM
- GI50 (SF-268): 5.29 µM
- GI50 (HCT-15): 3.01 µM
- GI50 (SF-539): 1.81 µM
- TGI (SF-539): 3.47 µM
- CC50 (SF-539; [5]): 6.62 µM
- GI50 (HT-29): 3.57 µM
- GI50 (DU-145): 9.6 µM
- GI50 (K562): 2.78 µM
- GI50 (LOX IMVI): 1.7 µM
- TGI (LOX IMVI): 3.8 µM
- CC50 (LOX IMVI; [5]): 8.53 µM
- GI50 (SK-MEL-2): 2.34 µM
- GI50 (COLO 205): 2.22 µM
- GI50 (M14): 2.15 µM
- GI50 (NCI-H226): 5.29 µM
- GI50 (SK-OV-3): 5.81 µM
- GI50 [3]: 4.45 µM
- GI50 (SW-620): 3.52 µM
- GI50 (TK-10): 5.16 µM
- GI50 (CCRF-CEM): 6.4 µM
- GI50 (SK-MEL-28): 4.8 µM
- GI50 (786-0): 3.41 µM
- GI50 (NCI-H322M): 5.73 µM
- GI50 (UO-31): 3.01 µM
- GI50 (RXF 393): 3.03 µM
- GI50 (HOP-92): 1.86 µM
- GI50 (NCI-H460): 2.35 µM
- GI50 (SNB-75): 4.25 µM
- GI50 (MOLT-4): 1.55 µM
- GI50 (OVCAR-5): 3.11 µM
- GI50 (UACC-62): 1.63 µM
- GI50 (Hs-578T): 3.27 µM
- GI50 (SF-295): 2.52 µM
- GI50 (RPMI-8226): 6.79 µM
- GI50 (SR): 2.36 µM
- GI50 (CAKI-1): 1.7 µM
- GI50 (PC-3): 3.05 µM
- GI50 (OVCAR-8): 4.03 µM

SMILES: Cn1cc(-c2cc(-c3cn(C)c4ccccc34)[nH]n2)c2ccccc21
- GI50 (UACC-257): 80.6 µM
- GI50 (OVCAR-3): 28.4 µM
- GI50 (BT-549): 15.9 µM
- Activity [4]: Active
- GI50 (NCI/ADR-RES): 27.6 µM
- GI50 (EKVX): 27.2 µM
- GI50 (HCT-116): 19 µM
- GI50 (Malme-3M): 93.1 µM
- GI50 (HCC 2998): 4.74 µM
- GI50 (A549): 16.3 µM
- GI50 (SK-MEL-5): 13.1 µM
- GI50 (IGROV-1): 8.9 µM
- GI50 (KM12): 4.58 µM
- GI50 (A498): 19.6 µM
- GI50 (ACHN): 7.67 µM
- GI50 (SNB-19): 27 µM
- GI50 (T47D): 79.7 µM
- GI50 (U-251): 12.9 µM
- GI50 (MCF7): 3.95 µM
- GI50 (HOP-62): 17.3 µM
- GI50 (NCI-H522): 22.1 µM
- GI50 (MDA-MB-231): 8.06 µM
- GI50 (OVCAR-4): 34.9 µM
- GI50 (NCI-H23): 22 µM
- GI50 (SF-268): 16 µM
- GI50 (HCT-15): 8.68 µM
- GI50 (SF-539): 16.2 µM
- GI50 (HT-29): 5.35 µM
- GI50 (DU-145): 15.6 µM
- GI50 (K562): 42.1 µM
- GI50 (LOX IMVI): 5.38 µM
- GI50 (SK-MEL-2): 57.5 µM
- GI50 (COLO 205): 7.98 µM
- GI50 (M14): > 100 µM
- GI50 (NCI-H226): 19.8 µM
- GI50 (SK-OV-3): 31.6 µM
- GI50 [3]: 15.4 µM
- GI50 (SW-620): > 100 µM
- GI50 (TK-10): 37.4 µM
- GI50 (CCRF-CEM): 14.4 µM
- GI50 (SK-MEL-28): > 100 µM
- GI50 (786-0): 14.1 µM
- GI50 (NCI-H322M): > 100 µM
- GI50 (UO-31): 37.6 µM
- GI50 (RXF 393): 14.7 µM
- GI50 (HOP-92): 2.06 µM
- GI50 (NCI-H460): 4.48 µM
- GI50 (SNB-75): 18.4 µM
- GI50 (MOLT-4): 4.75 µM
- GI50 (OVCAR-5): > 100 µM
- GI50 (UACC-62): 16.4 µM
- GI50 (Hs-578T): 18.5 µM
- GI50 (SF-295): 17.1 µM
- GI50 (RPMI-8226): 37.8 µM
- GI50 (SR): 3.46 µM
- GI50 (CAKI-1): > 100 µM
- GI50 (PC-3): 8.11 µM
- GI50 (SN12C): 1.95 µM
- GI50 (OVCAR-8): 28.8 µM
